Results published in patent publication US5239083A, “Indole derivatives which inhibit steroid 5α reductase” (Kyowa Hakko Kogyo Co., Ltd., priority 1991, dated 1993).

What was measured:
[1] = tested on: steroid 5α-reductase; assay: Inhibition effects on steroid 5α-reductase activity (rat prostate enzyme, [4-14C]-testosterone); assay type: biochemical, male rats; conditions: pH 6.5, 37° C., 20 minutes
Experimental: The measurements of inhibition effects of test compounds on steroid 5α-reductase activity were performed according to the method described by Liang et al. [J. Biol. Chem., 259, 734 (1984)] as follows.
The prostates from male rats were homogenated in three tissue volumes of 20 mM sodium phosphate buffer (pH 6.5; containing 0.32M sucrose and 1 mM dithiothreitol). The homogenate was centrifuged at 140,000 X g for one hour. The precipitate was suspended in the buffer described above and the suspension was centrifuged at 140,000 X g for one hour. The precipitate was resuspended in the buffer described above and the solution (30-50 mg protein/ml) was used as enzyme in following assay.
[4-^14 C]-testosterone (1.5 nmol), NADPH (75 nmol), the enzyme (1 mg protein) and test compound in a total volume of 0.5 ml of 40 mM sodium phosphate buffer [pH 6.5, containing 1 mM dithiothreitol] was incubated at 37° C. After 20 minutes the enzyme activity was stopped by the addition of 2 ml of ethyl acetate. The mixture was then centrifuged at 1,000 g, for 5 minutes. The ethyl acetate layer was transferred to another tube and evaporated to dryness. The steroids were taken up in 50 μl of ethyl acetate and separated by thin layer chromatography (TLC) on silica gel in a developing solvent (ethyl acetate: cyclohexane=1:1). The radioactivity of testosterone and dihydrotestosterone on the TLC plate was measured by a TLC scanner.

[2] = tested on: male dd mice; assay: Acute Toxicity Test (oral, mice); assay type: in vivo; conditions: oral 300 mg/kg, mortality observed seven days after administration
Experimental: Test compounds (300 mg/kg) were orally administered to male dd mice weighing 20±1 g (each group consists of three animals). Minimum lethal dose (MLD) was determined by observing mortality seven days after the administration.

inhibition rate (%), 10^-7 M [1] [%] | Molecule | Acute toxicity (MLD), minimum lethal dose [2] [mg/kg]
94 | 4-{2-[3-[1-(1-propylbutyl)indol-5-yl]isocrotonoyl amino]phenoxy}butyric acid [Compound 19] | –
– | CCCCCCn1ccc2cc(/C(C)=C/C(=O)Nc3ccccc3OCCCC(=O)O)ccc21 [Compound 7, 4-{2-[3-(1-hexylindol-5-yl)isocrotonoylamino]phenoxy}butyric acid] | > 300
– | CCC(C)n1ccc2cc(/C(C)=C/C(=O)Nc3ccccc3OCCCC(=O)O)ccc21 (stereo not shown) [Compound 15, 4-{2-[3-[1-(1-methylpropyl)indol-5-yl]isocrotonoylamino]phenoxy}butyric acid] | > 300
– | CCCCC(C)n1ccc2cc(/C(C)=C/C(=O)Nc3ccccc3OCCCC(=O)O)ccc21 (stereo not shown) [Compound 17, 4-{2-[3-[1-(1-methylpentyl)indol-5-yl]isocrotonoylamino]phenoxy}butyrate] | > 300
70 | CCCC(C)C(C)n1ccc2cc(/C(C)=C/C(=O)Nc3ccccc3OCCCC(=O)O)ccc21 (stereo not shown) [Compound 22, 4-{2-[3-[1-(1,2-dimethylpentyl)indol-5-yl]isocrotonoylamino]phenoxy}butyric acid] | –
78 | C/C(=C\C(=O)Nc1ccccc1OCCCC(=O)O)c1ccc2c(ccn2C(C)c2ccccc2)c1 (stereo not drawn) [Compound 38, 4-{2-[3-[1-(α-methylbenzyl)indol-5-yl]isocrotonoylamino]phenoxy}butyric acid] | –
78 | CCC(c1ccccc1)n1ccc2cc(/C(C)=C/C(=O)Nc3ccccc3OCCCC(=O)O)ccc21 (stereo not drawn) [Compound 40, 4-{2-[3-[1-(α-ethylbenzyl)indol-5-yl]isocrotonoylamino]phenoxy}butyric acid] | –
93 | C/C(=C\C(=O)Nc1ccc(F)cc1OCCCC(=O)O)c1ccc2c(ccn2C(c2ccccc2)c2ccccc2)c1 [Compound 48, 4-{2-[3-(1-benzhydrylindol-5-yl)isocrotonoylamino]-5-fluorophenoxy}butyric acid] | –
92 | C/C(=C\C(=O)Nc1ccccc1OCCCC(=O)O)c1ccc2c(ccn2C(c2ccccc2)c2ccc(F)cc2)c1 (stereo not shown) [Compound 57, 4-{2-[3-[1-(4-fluorobenzhydryl)indol-5-yl]isocrotonoylamino]phenoxy}butyricacid] | –
93 | C/C(=C\C(=O)Nc1ccccc1OCCCC(=O)O)c1ccc2c(ccn2C(c2ccccc2)c2ccccc2F)c1 (stereo not shown) [Compound 58, 4-{2-[3-[1-(2-fluorobenzhydryl)indol-5-yl]isocrotonoylamino]phenoxy}butyricacid] | –
92 | C/C(=C\C(=O)Nc1ccccc1OCCCC(=O)O)c1ccc2c(ccn2C(c2ccc(F)cc2)c2ccc(F)cc2)c1 [Compound 59, 4-{2-[3-[1-(4,4'-difluorobenzhydryl)indol-5-yl]isocrotonoylamino]phenoxy}butyric acid] | –
87 | COc1ccc(C(c2ccc(OC)cc2)n2ccc3cc(/C(C)=C/C(=O)Nc4ccccc4OCCCC(=O)O)ccc32)cc1 [Compound 60, 4-{2-[3-[1-(4,4-dimethoxybenzhydryl)indol-5-yl]isocrotonoylamino]phenoxy}butyric acid] | –
72 | C/C(=C\C(=O)Nc1ccccc1OCCCC(=O)O)c1ccc2c(ccn2C(c2ccccc2)c2ccccn2)c1 (stereo not shown) [Compound 63, 4-{2-[3-[1-[phenyl-(2-pyridyl)methyl]indol-5-yl]isocrotonoylamino]phenoxy}butyric acid] | –
98 | CCCC(CCC)n1ccc2cc(/C(C)=C/C(=O)Nc3ccc(F)cc3OCCCC(=O)O)ccc21 [Compound 67] | –
92 | CCCC(CC)n1ccc2cc(/C(C)=C/C(=O)Nc3ccccc3OCCCC(=O)O)ccc21 (stereo not shown) [Compound 68, 4-{2-[3-[1-(1-ethylbutyl)indol-5-yl]isocrotonoylamino]phenoxy}butyric acid] | –
70 | C/C(=C\C(=O)Nc1ccccc1OCCCC(=O)O)c1ccc2c(ccn2C(C)CCCC(C)C)c1 (stereo not shown) [Compound 76, 4-{2-[3-[1-(1,5-dimethylhexyl)indol-5-6l]isocrotonoylamino]phenoxy}butyric acid] | –
97 | C/C(=C\C(=O)Nc1ccccc1OCCCC(=O)O)c1ccc2c(ccn2C(CC(C)C)c2ccccc2)c1 (stereo not drawn) [Compound 77, 4-{2-[3-[1-[α-(2-methyl)-propylbenzyl]indol-5-yl]isocrotonoylamino]phenoxy}butyric acid] | –
94 | CCCC(c1ccccc1C)n1ccc2cc(/C(C)=C/C(=O)Nc3ccccc3OCCCC(=O)O)ccc21 (stereo not drawn) [Compound 78, 4-{2-[3-[1-(2-methyl-α-propylbenzyl)indol-5-yl]isocrotonoylamino]phenoxy}butyric acid] | –
90 | CCCCC(c1ccccc1C)n1ccc2cc(/C(C)=C/C(=O)Nc3ccccc3OCCCC(=O)O)ccc21 (stereo not drawn) [Compound 79, 4-{2-[3-[1-(α-butyl-2-methylbenzyl)indol-5-yl]isocrotonoylamino]phenoxy}butyric acid] | –
90 | C/C(=C\C(=O)Nc1ccccc1OCCCC(=O)O)c1ccc2c(ccn2C(c2ccccc2)c2ccc(C(F)(F)F)cc2)c1 (stereo not shown) [Compound 83] | –
66 | C/C(=C\C(=O)Nc1ccccc1OCCCC(=O)O)c1ccc2c(ccn2C(c2ccccc2)c2cccnc2)c1 (stereo not shown) [Compound 84] | –
95 | CCCC(CCC)n1ccc2cc(/C(=C/C(=O)Nc3ccccc3OCCCC(=O)O)CC)ccc21 [Compound 88, 4-{2-[3-[1-(1-propylbutyl)indol-5-yl]-cis-2-pentenoylamino]phenoxy}butyric acid] | –
95 | CCCC(CCC)n1ccc2cc(/C(=C/C(=O)Nc3ccc(F)cc3OCCCC(=O)O)CC)ccc21 [Compound 89, 4-{2-[3-[1-(1-propylbutyl)indol-5-yl]-cis-2-pentenoylamino]-5-fluorophenoxy}butyric acid] | –
79 | CCCCC(CCC)n1ccc2cc(/C(=C/C(=O)Nc3ccccc3OCCCC(=O)O)CC)ccc21 (stereo not drawn) [Compound 90, 4-{2-[3-[1-(1-propylpentyl)indol-5-yl]-cis-2-pentenoylamino]phenoxy}butyricacid] | –
98 | CCCCC(CCC)n1ccc2cc(/C(=C/C(=O)Nc3ccc(F)cc3OCCCC(=O)O)CC)ccc21 (stereo not drawn) [Compound 91, 4-{2-[3-[1-(1-propylpentyl)indol-5-yl]-cis-2-pentenoylamino]-5-fluorophenoxy}butyric acid] | –
91 | CC/C(=C\C(=O)Nc1ccccc1OCCCC(=O)O)c1ccc2c(ccn2C(CC(C)C)CC(C)C)c1 [Compound 92, 4-{2-[3-[1-[3-methyl-1-(2-methylpropyl)butyl]indol-5-yl]-cis-2-pentenoylamino]phenoxy}butyric acid] | –
94 | CC/C(=C\C(=O)Nc1ccccc1OCCCC(=O)O)c1ccc2c(ccn2C(c2ccccc2)c2ccccc2)c1 [Compound 93, 4-{2-[3-(1-benzhydrylindol-5-yl)-cis-2-pentenoylamino]phenoxy}butyric acid] | –
97 | CC/C(=C\C(=O)Nc1ccccc1OCCCC(=O)O)c1ccc2c(ccn2C(c2ccc(F)cc2)c2ccc(F)cc2)c1 [Compound 94, 4-{2-[3-[1-(4,4'-difluorobenzhydryl)indol-5-yl]-cis-2-pentenoylaminmo]phenoxy}butyric acid] | –
